Data on 43 compounds can be found in publication PMC10692477 (Acta Pharmaceutica Sinica. B, 2023).

Where “and” joins values, the source holds several entries; their conditions need not be identical. Equal values may be shown once. Some results are limits rather than exact numbers.

For one series, the target named is T1, AXL kinase (Homo sapiens, UniProt P30530).
T1 sequence (P30530 26-894): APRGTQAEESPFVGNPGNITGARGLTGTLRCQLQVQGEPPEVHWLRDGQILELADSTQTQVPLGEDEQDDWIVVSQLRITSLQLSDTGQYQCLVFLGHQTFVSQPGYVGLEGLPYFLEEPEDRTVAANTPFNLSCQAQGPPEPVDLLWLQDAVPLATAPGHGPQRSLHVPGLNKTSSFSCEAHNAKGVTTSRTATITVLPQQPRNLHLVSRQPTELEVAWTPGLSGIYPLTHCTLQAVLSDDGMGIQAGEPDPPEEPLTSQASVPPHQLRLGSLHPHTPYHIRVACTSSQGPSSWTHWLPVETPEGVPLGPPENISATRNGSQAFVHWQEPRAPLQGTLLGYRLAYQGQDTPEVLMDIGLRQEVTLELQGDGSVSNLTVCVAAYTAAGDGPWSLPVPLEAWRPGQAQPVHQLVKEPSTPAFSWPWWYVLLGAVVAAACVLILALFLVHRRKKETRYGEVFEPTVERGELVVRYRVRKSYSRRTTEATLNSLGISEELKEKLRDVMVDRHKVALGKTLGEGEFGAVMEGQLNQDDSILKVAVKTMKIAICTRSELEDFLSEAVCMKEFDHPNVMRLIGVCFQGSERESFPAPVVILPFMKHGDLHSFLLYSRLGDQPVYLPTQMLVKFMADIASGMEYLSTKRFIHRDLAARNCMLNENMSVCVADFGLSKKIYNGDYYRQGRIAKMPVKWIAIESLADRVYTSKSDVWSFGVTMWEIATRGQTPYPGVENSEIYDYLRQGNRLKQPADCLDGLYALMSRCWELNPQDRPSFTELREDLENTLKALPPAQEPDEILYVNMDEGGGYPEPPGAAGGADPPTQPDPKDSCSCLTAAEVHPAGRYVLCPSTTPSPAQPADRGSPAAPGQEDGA
Put plainly: AXL kinase inhibition, ELISA. Type of series: biochemical. Particulars: for inhibition at 0.1 µM: read-out: inhibition rate AXL kinase; for IC50: IC50 AXL kinase, ELISA, mean ± SD of two independent experiments. In general terms: In an ELISA, binding on a coated surface is turned into a signal by an enzyme label.

The subject of a further series is BaF3/TEL-AXL cells. Briefly: BaF3/TEL-AXL cell viability. It counts as cell-based. Particulars: 48 h, read-out: IC50 Cell viability.
Series [1] is described as follows: Pharmacokinetics in ICR mice. Particulars: mouse, serum. Type of series: in vivo.

The inhibition is the relative decrease from the control value, in per cent. `O=C(Nc1ccc(Oc2ccc3nncn3n2)cc1)c1c2n(n(-c3ccccc3)c1=O)CCCC2` [Compound 12]: the inhibition at 0.1 µM on AXL kinase is -17.7%.

For `O=C(Nc1ccc(Oc2ccn3nccc3n2)cc1)c1c2n(n(-c3ccccc3)c1=O)CCCC2` [Compound 13], the inhibition at 0.1 µM on AXL kinase is -18.9%.

For the compound `COc1nc(OC)nc(Oc2ccc(NC(=O)c3c4n(n(-c5ccccc5)c3=O)CCCC4)cc2)n1` [Compound 14], the inhibition at 0.1 µM at AXL kinase is -6%.

Broadly, the IC50 is the concentration needed to halve the response being measured. With `COc1cc2ncnc(Oc3ccc(NC(=O)c4c5n(n(-c6ccccc6)c4=O)CCCC5)cc3F)c2cc1OC` [Compound 16], the 50% inhibitory concentration (IC50) in the series on BaF3/TEL-AXL cells is under 0.1 nM.

In the case of `COc1cc2ncnc(Oc3ccc(NC(=O)c4c5n(n(-c6ccccc6F)c4=O)CCCC5)cc3F)c2cc1OC` [Compound 17], the 50% inhibitory concentration (IC50) in the series on BaF3/TEL-AXL cells is under 0.1 nM.

For `COc1cc2ncnc(Oc3ccc(NC(=O)c4c5n(n(-c6ccc(F)cc6)c4=O)CCCC5)cc3F)c2cc1OC` [Compound 19], the IC50 with BaF3/TEL-AXL cells is under 0.1 nM.

As for `COc1cc2ncnc(Oc3ccc(NC(=O)c4c5n(n(-c6ccccc6Cl)c4=O)CCCC5)cc3F)c2cc1OC` [Compound 20], the 50% inhibitory concentration (IC50) at AXL kinase was 10.5 ± 0.5 nM; in the series on BaF3/TEL-AXL cells it was 7 ± 4.2 nM.

Take `COc1cc2ncnc(Oc3ccc(NC(=O)c4c5n(n(-c6ccc(Cl)cc6)c4=O)CCCC5)cc3F)c2cc1OC` [Compound 21]: the concentration for half-maximal inhibition (IC50) against AXL kinase is 42.6 ± 6.2 nM.

Turning to `COc1cc2ncnc(Oc3ccc(NC(=O)c4c5n(n(-c6ccccc6C)c4=O)CCCC5)cc3F)c2cc1OC` [Compound 22], the half-inhibitory concentration (IC50) against AXL kinase amounted to 15.7 ± 1.7 nM; with BaF3/TEL-AXL cells, 7.6 ± 4.1 nM.

For `COc1cc2ncnc(Oc3ccc(NC(=O)c4c5n(n(-c6ccc(C)cc6)c4=O)CCCC5)cc3F)c2cc1OC` [Compound 23], the concentration for half-maximal inhibition (IC50) against AXL kinase was determined as 27.3 ± 2.6 nM.

For orientation: AUC(0-inf) means total exposure, with the tail of the curve extrapolated. The low end stands for low exposure, the high end for high exposure. The term AUC(0-t) denotes the area under the concentration-time curve up to a stated or last time point. A high value points to high exposure. Usually clearance stands for the rate of elimination divided by the concentration. Read a low clearance as a low capacity for elimination. What is called half-life is the time needed for the level to fall by half in the phase considered. High values mean slow loss, low ones fast loss. As usually defined, the Cmax is the peak of the concentration-time curve. What is called Tmax is the time from dosing to the highest level. The bioavailability is the share of a dose that reaches the circulation, judged against a reference dose that is usually intravenous. High values mean good availability, low ones poor availability. In series [1] (iv, 5 mg/kg), `COc1cc2ncnc(Oc3ccc(NC(=O)c4c5n(n(-c6cc(F)ccc6F)c4=O)CCCC5)cc3F)c2cc1OC` [Compound 24] had a total exposure AUC(0-inf) of 49100 ng·h/mL, an AUC(0-t) of 48900 ng·h/mL, a clearance of 1.7 mL/min/kg and a half-life of 3.38 h. Besides, in series [1] (po, 10 mg/kg), the area under the curve AUC(0-inf) stood at 14200 ng·h/mL, the AUC(0-t) stood at 13500 ng·h/mL, the Cmax amounted to 1490 ng/mL and the time of peak concentration (Tmax) was found to be 2 h. In series [1] (po, 10 mg/kg), the bioavailability is 13.8% and the half-life was 6.77 h. In addition, the IC50 in the series with BaF3/TEL-AXL cells was under 0.1 nM.

In turn, `COc1cc2ncnc(Oc3ccc(NC(=O)c4c5n(n(-c6cc(C)ccc6C)c4=O)CCCC5)cc3F)c2cc1OC` [Compound 25] yielded a concentration for half-maximal inhibition (IC50) against AXL kinase of 78.4 ± 2.1 nM.

Turning to `COc1cc2ncnc(Oc3ccc(NC(=O)c4c5n(n(-c6ccc(F)cc6F)c4=O)CCCC5)cc3F)c2cc1OC` [Compound 27], the IC50 against AXL kinase worked out at 25.1 ± 1.6 nM.

Turning to `COc1cc2ncnc(Oc3ccc(NC(=O)c4c5n(n(-c6ccccc6)c4=O)CCCC5)c(F)c3)c2cc1OC` [Compound 29], the values for the IC50 at AXL kinase and in the series with BaF3/TEL-AXL cells were 10 ± 1.4 nM and 2.3 ± 0.4 nM, respectively.

Consider `COc1cc2ncnc(Oc3ccc(NC(=O)c4c5n(n(-c6ccccc6F)c4=O)CCCC5)c(F)c3)c2cc1OC` [Compound 30], for which the IC50 is 13.4 ± 0.8 nM on AXL kinase and under 0.1 nM with BaF3/TEL-AXL cells.

As for `COc1cc2ncnc(Oc3ccc(NC(=O)c4c5n(n(-c6ccc(F)cc6)c4=O)CCCC5)c(F)c3)c2cc1OC` [Compound 31], the IC50 at AXL kinase is 30.5 ± 4.9 nM.

With `COc1cc2ncnc(Oc3ccc(NC(=O)c4c5n(n(-c6cc(F)ccc6F)c4=O)CCCC5)c(F)c3)c2cc1OC` [Compound 32], the IC50 against AXL kinase was 37 ± 1.4 nM.

In the case of `COc1cc2ncnc(Oc3ccc(NC(=O)c4c5n(n(-c6ccccc6)c4=O)CCCC5)cc3Cl)c2cc1OC` [Compound 33], the half-inhibitory concentration (IC50) at AXL kinase is 16.9 ± 2.5 nM; in the series on BaF3/TEL-AXL cells, 1650 ± 444 nM.

In turn, `COc1cc2ncnc(Oc3ccc(NC(=O)c4c5n(n(-c6ccccc6F)c4=O)CCCC5)cc3Cl)c2cc1OC` [Compound 34] yielded a 50% inhibitory concentration (IC50) against AXL kinase of 30.9 ± 1.4 nM.

As to `COc1cc2ncnc(Oc3ccc(NC(=O)c4c5n(n(-c6ccc(F)cc6)c4=O)CCCC5)cc3Cl)c2cc1OC` [Compound 35], the IC50 at AXL kinase came to 19.6 ± 1.9 nM.

As to `COc1cc2ncnc(Oc3ccc(NC(=O)c4c5n(n(-c6cc(F)ccc6F)c4=O)CCCC5)cc3Cl)c2cc1OC` [Compound 36], the IC50 against AXL kinase worked out at 6.6 ± 2.9 nM; in the series with BaF3/TEL-AXL cells, 3630 ± 494 nM.

Consider `COc1cc2ncnc(Oc3ccc(NC(=O)c4c5n(n(-c6ccccc6)c4=O)CCCC5)cc3C)c2cc1OC` [Compound 37], for which the inhibition at 0.1 µM at AXL kinase is 23.2%.

Take `COc1cc2ncnc(Oc3ccc(NC(=O)c4c5n(n(-c6ccccc6F)c4=O)CCCC5)cc3C)c2cc1OC` [Compound 38]: the inhibition at 0.1 µM at AXL kinase turned out to be 32.3%.

For `COc1cc2ncnc(Oc3ccc(NC(=O)c4c5n(n(-c6ccc(F)cc6)c4=O)CCCC5)cc3C)c2cc1OC` [Compound 39], the inhibition at 0.1 µM at AXL kinase was found to be 15.6%.

Consider `COc1cc2ncnc(Oc3ccc(NC(=O)c4c5n(n(-c6cc(F)ccc6F)c4=O)CCCC5)cc3C)c2cc1OC` [Compound 40], for which the inhibition at 0.1 µM at AXL kinase was found to be 35.7%.

In the case of `COc1cc2ncnc(Oc3ccc(NC(=O)c4c5n(n(-c6ccccc6)c4=O)CCCC5)cc3OC)c2cc1OC` [Compound 41], the inhibition at 0.1 µM at AXL kinase was 56.4%.

Take `COc1cc2ncnc(Oc3ccc(NC(=O)c4c5n(n(-c6ccccc6F)c4=O)CCCC5)cc3OC)c2cc1OC` [Compound 42]: at AXL kinase, the inhibition at 0.1 µM amounted to 28%.

Regarding `COc1cc2ncnc(Oc3ccc(NC(=O)c4c5n(n(-c6ccc(F)cc6)c4=O)CCCC5)cc3OC)c2cc1OC` [Compound 43], the inhibition at 0.1 µM on AXL kinase worked out at 19.9%.

For the compound `COc1cc2ncnc(Oc3ccc(NC(=O)c4c5n(n(-c6ccccc6)c4=O)CCCC5)cc3C(F)(F)F)c2cc1OC` [Compound 45], the inhibition at 0.1 µM on AXL kinase is 59.4%.

Turning to `COc1cc2ncnc(Oc3ccc(NC(=O)c4c5n(n(-c6ccccc6F)c4=O)CCCC5)cc3)c2cc1OC` [Compound 49], the inhibition at 0.1 µM on AXL kinase was 47.9%.

Consider `COc1cc2ncnc(Oc3ccc(NC(=O)c4c5n(n(-c6cc(F)ccc6F)c4=O)CCCC5)cc3)c2cc1OC` [Compound 50], for which the concentration for half-maximal inhibition (IC50) in the series on BaF3/TEL-AXL cells amounted to 7.8 ± 0.7 nM.

Consider `COc1cc2ncnc(Oc3ccc(NC(=O)c4c5n(n(-c6ccccc6)c4=O)CCCC5)nc3)c2cc1OC` [Compound 51], for which the values for the IC50 at AXL kinase and with BaF3/TEL-AXL cells were 16.8 ± 3.5 nM and 3.3 ± 1.4 nM, respectively.

For the compound `COc1cc2ncnc(Oc3ccc(NC(=O)c4c5n(n(-c6ccccc6)c4=O)CCCC5)c4ccccc34)c2cc1OC` [Compound 52], the inhibition at 0.1 µM on AXL kinase was determined as 41%.

`COc1cc2ncnc(Oc3ccc(NC(=O)c4c5n(n(-c6ccccc6F)c4=O)CCCC5)c4ccccc34)c2cc1OC` [Compound 53]: the inhibition at 0.1 µM on AXL kinase came to 41.4%.

Turning to `COc1cc2ncnc(Oc3ccc(NC(=O)c4c5n(n(-c6ccc(F)cc6)c4=O)CCCC5)c4ccccc34)c2cc1OC` [Compound 54], the inhibition at 0.1 µM on AXL kinase worked out at 39%.

Turning to `COc1cc2ncnc(Oc3ccc(NC(=O)c4c5n(n(-c6cc(F)ccc6F)c4=O)CCCC5)c4ccccc34)c2cc1OC` [Compound 55], the inhibition at 0.1 µM on AXL kinase is 50.4%.

Take `COc1cc2nccc(Oc3ccc(NC(=O)c4c5n(n(-c6ccccc6)c4=O)CCCC5)cc3)c2cc1OC` [Compound 56]: the figures for the 50% inhibitory concentration (IC50) at AXL kinase and in the series with BaF3/TEL-AXL cells were 4 ± 0.4 nM and 1 ± 0.2 nM, respectively.

As to `COc1cc2nccc(Oc3ccc(NC(=O)c4c5n(n(-c6ccccc6)c4=O)CCCC5)cc3F)c2cc1OC` [Compound 57], the half-inhibitory concentration (IC50) in the series with BaF3/TEL-AXL cells was under 0.1 nM.

Turning to `COc1cc2nccc(Oc3ccc(NC(=O)c4c5n(n(-c6ccccc6)c4=O)CCCC5)cn3)c2cc1OC` [Compound 58], the inhibition at 0.1 µM on AXL kinase amounted to 50.9%.

On to `COc1cc2nccc(Oc3ccc(NC(=O)c4c5n(n(-c6cc(F)ccc6F)c4=O)CCCC5)cc3)c2cc1OC` [Compound 60], for which the concentration for half-maximal inhibition (IC50) is < 10 nM and 1.2 nM against AXL kinase; under 0.2 nM in the series with BaF3/TEL-AXL cells.

With `COc1cc2nccc(Oc3ccc(NC(=O)c4c5n(n(-c6cc(F)ccc6Cl)c4=O)CCCC5)cc3)c2cc1OC` [Compound 61], the half-maximal inhibitory concentration (IC50) is < 10 nM and 0.7 nM at AXL kinase; under 0.2 nM in the series with BaF3/TEL-AXL cells.

Take `COc1cc2nccc(Oc3ccc(NC(=O)c4c5n(n(-c6ccc(F)cc6F)c4=O)CCCC5)cc3)c2cc1OC` [Compound 62]: the 50% inhibitory concentration (IC50) against AXL kinase is < 10 nM and 6.1 nM; with BaF3/TEL-AXL cells, 0.7 ± 0.3 nM.

On to `COc1cc2nccc(Oc3ccc(NC(=O)c4c5n(n(-c6ccc(F)cc6Cl)c4=O)CCCC5)cc3)c2cc1OC` [Compound 63], for which the half-inhibitory concentration (IC50) on AXL kinase was < 10 nM and 2.3 nM; with BaF3/TEL-AXL cells it was under 0.2 nM.
